According to ChEMBL document CHEMBL5728856, “Anilinopyrimidines as haematopoietic progenitor kinase 1 (HPK1) inhibitors” (2021):

Target: Mitogen-activated protein kinase kinase kinase kinase 1 (Homo sapiens, UniProt Q92918)
Experiment: Enzymatic Activity Assay: The enzymatic activity of Wild Type HPK1 (MAP4K1) Kinase was measured in the presence or absence of an inhibitor compound of the present disclosure by preparation of a reaction mixture containing a fluorescein tagged peptide (2 micromolar final concentration), ATP (Adenosine Triphosphate, 500 micromolar final concentration) and Wild Type kinase (6 nM final concentration) in a buffer system comprising 50 mM HEPES (Buffer), 3 mM MgCl2, 5% w/v Trehalose, 0.01% Brij 35 (Detergent), 0.1% Pluronic F127 (Surfactant), 0.1 mM EDTA (Ethylenediaminetetraacetic acid), 0.1 mM EGTA (ethylene glycol-bis(β-aminoethyl ether)-N,N,N′,N′-tetraacetic acid) and 1 mM DTT (Dithiothreitol) and at a pH of 7.4. The reactions were quenched by the addition of EDTA to a final concentration of 25 mM. A Caliper EZ reader was used to measure the extent of substrate to product conversion.The peptide substrate used in the HPK1 assay was designed based on the amino acid sequence surrounding serine residue 376 of SLP76-Lymphocyte cytosolic protein 2 (a known intracellular substrate of HPK1). […]
Format: cell-based

Chain of Mitogen-activated protein kinase kinase kinase kinase 1 (Q92918 whole entry): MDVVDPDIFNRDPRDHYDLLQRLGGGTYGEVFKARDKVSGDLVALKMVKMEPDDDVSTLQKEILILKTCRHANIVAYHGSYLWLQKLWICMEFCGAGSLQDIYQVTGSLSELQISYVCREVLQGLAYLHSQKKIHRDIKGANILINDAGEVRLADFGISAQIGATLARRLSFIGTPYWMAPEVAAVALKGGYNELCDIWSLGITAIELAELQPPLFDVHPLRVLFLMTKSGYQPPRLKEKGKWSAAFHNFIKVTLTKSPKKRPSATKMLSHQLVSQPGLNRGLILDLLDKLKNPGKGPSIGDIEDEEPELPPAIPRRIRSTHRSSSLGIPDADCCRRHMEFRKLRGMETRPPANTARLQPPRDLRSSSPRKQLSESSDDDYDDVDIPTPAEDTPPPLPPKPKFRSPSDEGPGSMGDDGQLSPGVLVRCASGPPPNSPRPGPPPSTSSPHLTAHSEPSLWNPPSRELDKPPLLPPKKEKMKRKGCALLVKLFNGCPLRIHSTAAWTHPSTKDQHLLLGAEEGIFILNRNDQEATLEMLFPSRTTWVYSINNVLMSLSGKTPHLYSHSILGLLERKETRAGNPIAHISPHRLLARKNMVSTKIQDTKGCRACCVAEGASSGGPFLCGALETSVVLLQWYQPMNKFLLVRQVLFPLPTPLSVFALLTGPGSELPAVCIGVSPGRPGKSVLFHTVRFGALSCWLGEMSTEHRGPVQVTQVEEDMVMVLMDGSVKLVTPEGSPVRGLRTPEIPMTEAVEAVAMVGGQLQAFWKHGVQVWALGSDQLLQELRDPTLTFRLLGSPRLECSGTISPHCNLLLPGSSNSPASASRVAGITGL

- IC50: < 5 nM
Structure (SMILES): CN1CCc2cc(Nc3ncc(Cl)c(Nc4ccccc4P(C)(C)=O)n3)c(Cl)cc2C1
